This assay has as its target T1, APLF FHA domain (Homo sapiens, UniProt Q8IW19).
T1 construct: His6 (N, cleaved yes); TEV cleavage site (N, cleaved yes); made in house; host or cells: Escherichia coli Rosetta2 (DE3)
T1 sequence (Q8IW19 1-108 limits assumed): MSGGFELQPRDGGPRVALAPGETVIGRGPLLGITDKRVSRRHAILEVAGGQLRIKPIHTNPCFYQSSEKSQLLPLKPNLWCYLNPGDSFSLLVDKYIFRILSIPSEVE
In words: 1H,15N-HSQC NMR phosphopeptide titration. It counts as binding. The following applies: pH 7.4, 0.1 mM U-[15N] APLF FHA, 25 mM HEPES, 25 mM MES, 150 mM NaCl, 1 mM EDTA, 35°C. As to the method: All NMR experiments were performed at 35°C on a Varian INOVA 500 MHz spectrometer equipped with a triple-resonance, pulsed-field gradient cryo-probe, with the exception of the ^31P experiments, which were collected on an Agilent/Varian DD2 600 MHz spectrometer equipped with a heteronuclear broadband probe. The backbone chemical shift assignments were made from 3D HNCACB, CBCA(CO)NH, HNCA, HN(CO)CA, HNCO and HN(CA)CO experiments that were obtained using Agilent BioPack pulse sequences (Agilent). The 3D experiments were acquired with non-uniform sampling to speed up the data acquisition ([36],[37]). Since several of the amide resonances were broadened as a result of the intermediate amide proton exchange dynamics at pH 7.4, a low pH buffer, 25 mM sodium citrate, 50 mM NaCl, and 1 mM EDTA, pH 5.5, was used for the amide backbone assignments. For phosphopeptide titration experiments, 2D ^1H,^15N-HSQC spectra were acquired on a sample containing 0.1 mM U-[^15N] APLF-FHA in 25 mM HEPES, 25 mM MES, 150 mM NaCl, 1 mM EDTA, pH 7.4 as a function of phosphopeptide concentration. The interaction of sodium phosphate, sodium sulfate, and sodium ethylsulfate with U-[^15N] APLF FHA sample was also studied by monitoring the ^1H,^15N-HSQC spectrum of the labeled protein as a function of the anion concentration. The volume of peptide or anion added never exceeded more than 10% of the total volume.

pKd: −log10 of the molar value. Square brackets hold non-standard residues; d marks the D form. Peptide text beside a SMILES is read from it. pT = C[C@@H](OP(=O)(O)O)[C@H](N)C(=O)O; pS = N[C@@H](COP(=O)(O)O)C(=O)O

`C[C@H](NC(=O)[C@H](Cc1ccc(O)cc1)NC(=O)[C@@H]1CCCN1)C(=O)NCC(=O)N[C@@H](COP(=O)(O)O)C(=O)N[C@H](C(=O)N[C@@H](CC(=O)O)C(=O)N[C@@H](CCC(=O)O)C(=O)N[C@@H](CC(N)=O)C(=O)O)[C@@H](C)OP(=O)(O)O` [XRCC1pSpT-9] (H-PYAG[pS][pT]DEN-OH) gave a pKd of 4.10.

The term pKd denotes the negative decadic logarithm of the Kd, by convention in mol/L. The low end stands for a high Kd, the high end for a low Kd.

For the origin of these results see article PMC5716189, “Characterization of the APLF FHA–XRCC1 phosphopeptide interaction and its structural and functional implications” (Nucleic Acids Research, 2017).
